Laboratory results as given in patent US11045542B2, “Method of reducing reactogenicity induced by administration of vaccine or immunogenic composition” (GLAXOSMITHKLINE BIOLOGICALS, SA, priority 2015, dated 2021).

Key:
Format in all cases: in vivo, Mice
[1] = tested on: cytokines (TNFα, IL-6, IL1b and INFγ) and chemokine (G-CSF, MCP-1, KC and MIP-1a) levels in muscle; assay: Effect of MaR1 on the local cytokine profile induced by adjuvant injection (CBA on muscle homogenates); settings: MaR1 5 ng/dose intramuscularly 1 h prior to AS01B; 4 h post-injection of the MaR1
Description: Mice (n=6/gr) were injected intramuscularly with the same synthetic MaR1 as the one used in Example 2 (5 ng/dose), or PBS as a control. 1 h later, mice received intramuscularly adjuvant AS01B or PBS. Muscles were collected at 4 h and 24 h following MaR1/PBS administration and frozen at −70° C. Muscles were thawed and homogenized and cytokines (TNFα, IL-6, IL1b and INFγ) and chemokine (G-CSF, MCP-1, KC and MIP-1a) levels in the cleared homogenates were measured by CBA (Becton Dickinson). The cytokine/chemokine concentrations are expressed in pg/mL. The plotted area represents the mean obtained for a specific cytokine/chemokine. A 2-way ANOVA was performed to compare the different groups. *: p<0.05 (See FIG. 4).

[2] = tested on: Anti-OVA or anti-HBs antibodies; assay: Effect of MaR1 on specific antibody responses induced by vaccine injection (ELISA on sera); settings: MaR1 5 ng/dose intramuscularly 1 h prior to OVA and HBS antigens in AS01B; vs antigens and adjuvant alone
Description: Mice (n=30/gr) were injected intramuscularly with the same synthetic MaR1 as the one used in Example 2 (5 ng/dose), or PBS as a control. 1 h later, mice were vaccinated with OVA and HBS antigens re-suspended in adjuvant AS01B or in PBS. This vaccination scheme was repeated 15 days later. Sera were taken 7 days after the second immunization. Anti-OVA (A) or anti-HBs (B) antibodies were detected by ELISA. Antibody titers are expressed in ng/mL. Each point represents an individual value; the bar represents the mean+/−SD. (See FIG. 6).

[3] = tested on: CD4+ or CD8+ T cells expressing at least 2 cytokines; assay: Effect of MaR1 on specific T cell responses induced by vaccine injection (intracellular cytokine staining of spleen cells); settings: MaR1 5 ng/dose intramuscularly 1 h prior to OVA and HBS antigens in AS01B; vs antigens and adjuvant alone
Description: Mice (n=30/gr) were injected intramuscularly with the same synthetic MaR1 as the one used in Example 2 (5 ng/dose) or PBS as a control. 1 h later, mice were vaccinated with OVA (Ovalbumin) and HBS (Hepatitis B Surface) antigens re-suspended in adjuvant AS01B or in PBS. This vaccination scheme was repeated 15 days later. Spleens were removed 7 days after the second immunization, and immune cells were extracted and stimulated overnight with OVA (A) or HBS (B) peptides. After surface staining with anti-CD4 and anti-CD8 antibodies, cells were labeled intra-cellularly with anti-IL-2, anti-IFN-γ and anti-TNF-α and analyzed by flow cytometry. Results are expressed as percentages of CD4+ or CD8+ T cells expressing at least 2 cytokines among the ones tested. Each point represents an individual value, the bar represents the mean+/−SD (see FIG. 5).

[4] = tested on: local immune cells at the injection site (muscle); assay: Effect of MaR1 on the local immune cells profile induced by adjuvant injection (flow cytometry of muscle cells); settings: MaR1 5 ng/dose intramuscularly 1 h prior to AS01B
Description: Mice (n=6/gr) were injected intramuscularly with synthetic 7-Maresin-1 (MaR1) (5 ng/dose) or PBS as a control. 1 h later, mice received intramuscularly adjuvant AS01B or PBS. Muscles were collected at 4 h and 24 h following 7-Maresin-1/PBS administration and local immune cells were extracted. The cells were stained with the following antibodies: Lytic, SiglecF, CD90.2, Ly6G, CD11b, CD11c, HLA DR, CD45 and CD19 and analysed by flow cytometry. The cell recruitment is expressed in number of cells per muscle. The plotted area represents the mean obtained for a specific subpopulation. A 2-way ANOVA was performed to compare the different groups. *: p<0.05. The chemical structure of the synthetic MaR1 used in the present experiment is identical to the chemical structure of MaR1 disclosed in Buckley et al. (“Proresolving Lipid Mediators and Mechanisms in the Resolution of Acute Inflammation”, 2014, Immunity 40: 315-327).

[5] = tested on: local immune cells at the injection site (muscle); assay: Effect of RvE1 on the local immune cells profile induced by adjuvants injection (flow cytometry of muscle cells); settings: muscles at 24 h
Description: Mice (n=6/gr) were injected intramuscularly with PBS, AS03 adjuvant (oil-in-water emulsion) or AS01B adjuvant (MPL+QS21 in liposomes). 1 h and 6 h later, synthetic RvE1 (0.2 μg/dose) or PBS was administered also intramuscularly. Muscles were collected at 24 h following adjuvant/PBS administration and local immune cells were extracted. The cells were stained with the following antibodies: Lytic, SiglecF, CD90.2, Ly6G, CD11b, CD11c, HLA DR, CD45 and CD19 and analysed by flow cytometry. The cell recruitment is expressed in number of cells per muscle. The plotted area represents the mean obtained for a specific subpopulation. A 2-way ANOVA was performed to compare the different groups. *: p<0.05. The chemical structure of the synthetic RvE1 used in the present experiment is identical to the chemical structure of RvE1 disclosed in Buckley et al. (“Proresolving Lipid Mediators and Mechanisms in the Resolution of Acute Inflammation”, 2014, Immunity 40: 315-327).

[6] = tested on: cytokines (TNFα, IL-6, IL1b and IFNγ) and chemokine (G-CSF, MCP-1, KC and MIP-1a) levels in muscle; assay: Effect of RvE1 on the local cytokine profile induced by adjuvants injection (CBA on muscle homogenates)
Description: Mice (n=6/gr) were injected intramuscularly with PBS, adjuvant AS03 or adjuvant AS01B. 1 h and 6 h later, the same synthetic RvE1 as the one used in Example 1 (0.2 μg/dose), or PBS was administered also intramuscularly. Muscles were collected at 4 h (A) and 24 h (B) following adjuvant or PBS administration and frozen at −70° C. Muscles were thawed and homogenized and cytokines (TNFα, IL-6, IL1b and IFNγ) and chemokine (G-CSF, MCP-1, KC and MIP-1a) levels in the cleared homogenates were measured by CBA (Becton Dickinson). The cytokine/chemokine concentrations are expressed in pg/mL. The plotted area represents the mean obtained for a specific cytokine/chemokine. A 2-way ANOVA was performed to compare the different groups. *: p<0.05 (See FIG. 3).

SMILES	modulation of local cytokines/chemokines profile [1]	anti-HBS antibody response induced by adjuvanted vaccine [2]	anti-OVA antibody response induced by adjuvanted vaccine [2]	CD4+ T cell response induced by adjuvanted vaccine [3]	CD8+ T cell response induced by adjuvanted vaccine [3]	pattern of immune cells at the injection site ([4]; 4 h post-injection)	pattern of immune cells at the injection site ([4]; 24 h post-injection)	recruitment of immune cells at the injection site (number of cells per muscle) ([5]; RvE1 0.2 μg/dose intramuscularly 1 h and 6 h after AS01B, vs AS01B alone)	recruitment of immune cells at the injection site (number of cells per muscle) ([5]; RvE1 0.2 μg/dose intramuscularly 1 h and 6 h after AS03, vs AS03 alone)	pattern of immune cells at the injection site ([5]; RvE1 on its own with PBS alone, compared with PBS alone)	modulation of local cytokines/chemokines concentration ([6]; RvE1 0.2 μg/dose intramuscularly after AS01B, 4 h post-injection of the adjuvant)	modulation of local cytokines/chemokines concentration ([6]; RvE1 0.2 μg/dose intramuscularly after AS01B, 24 h post-injection of the adjuvant)	modulation of local cytokines/chemokines concentration ([6]; RvE1 0.2 μg/dose intramuscularly after AS03, 4 h post-injection of the adjuvant)	modulation of local cytokines/chemokines concentration ([6]; RvE1 0.2 μg/dose intramuscularly after AS03, 24 h post-injection of the adjuvant)
CC/C=C\C/C=C\C[C@H](O)\C=C/C=C/C=C/[C@H](O)C/C=C\CCC(=O)O [MaR1, 7-Maresin-1]	significant transient modulating effect	did not negatively impact the antibody immune response	did not negatively impact the antibody immune response	did not negatively impact the T cell immune response	did not negatively impact the T cell immune response	may be too early to detect an effect	increase of B cells and T cells recruitment on site							
CC[C@@H](O)/C=C/C=C\C[C@@H](O)/C=C/C=C/C=C\[C@@H](O)CCCC(=O)O [RvE1, Resolvin E1]								The same conclusion holds true	significantly reduced recruitment of all the immune cell types tested	only a minimal effect on the pattern of immune cells	no significant modulating effect was observed	no significant modulating effect was observed	a significant modulating effect was observed	no significant effect was observed
